Source: US7431958B2, “Use of fraction from Cinnamomum zeylanicum for preserving food” (Council of Scientific & Industrial Research, priority 2003, dated 2008)

Assays:
[1] = antioxidant activity using DPPH method
From the text: The water extract obtained in the above methods was screened for antioxidant activity using 1,1-diphenyl-2-picrylhydrazyl (DPPH) [J. Agricultural and Food Chemistry, 50, 81-86, 2002].

[2] = antioxidant activity using β-carotene-linoleate model system; conditions: β-carotene-linoleate method
From the text: The water extract obtained, was screened for antioxidant activity using β-carotene-linoleate model systems.

## COc1ccc(O)c(C(C)(C)C)c1 [BHA, butylated hydroxyanisole]
[1]; 25 ppm
  antioxidant activity: 71%
[1]; 50 ppm
  antioxidant activity: 94%
[2]; 100 ppm
  antioxidant activity: 81%
[2]; 200 ppm
  antioxidant activity: 89%
